From the SangsterLogP compilation

Assay: method code SF-HPLC, from DOI: 10.1016/s0928-0987(01)00163-4, PMID: 11500258
Settings: pH 7.4

Row | Compound | logD
1 | CC(C(=O)OCCOCCOCCOCCO)c1cccc(C(=O)c2ccccc2)c1 (stereo not drawn) | 3.6
2 | COc1ccc2cc(C(C)C(=O)OCCOCCOCCOCCOCCO)ccc2c1 (stereo not drawn) | 3.2
3 | COc1ccc2cc(C(C)C(=O)OCCOCCOCCOCCOCCOCCO)ccc2c1 (stereo not drawn) | 2.9
4 | CC(C(=O)OCCOCCOCCO)c1cccc(C(=O)c2ccccc2)c1 (stereo not drawn) | 3.4
5 | COc1ccc2cc(C(C)C(=O)OCCOCCOCCO)ccc2c1 (stereo not drawn) | 3.7
6 | CC(C(=O)OCCOCCOCCOCCOCCOCCO)c1cccc(C(=O)c2ccccc2)c1 (stereo not drawn) | 3.5
7 | CC(C(=O)OCCOCCOCCOCCOCCO)c1cccc(C(=O)c2ccccc2)c1 (stereo not drawn) | 3.9
8 | COc1ccc2cc(C(C)C(=O)OCCOCCOCCOCCO)ccc2c1 (stereo not drawn) | 3.5
9 | O=C(Cc1ccccc1Nc1c(Cl)cccc1Cl)OCCOCCOCCOCCOCCOCCO | 2.6

The next lines start with the values.

Row | logD | Compound
10 | 3.5 | O=C(Cc1ccccc1Nc1c(Cl)cccc1Cl)OCCOCCOCCOCCO
11 | 4.1 | O=C(Cc1ccccc1Nc1c(Cl)cccc1Cl)OCCOCCO
12 | 3.9 | O=C(Cc1ccccc1Nc1c(Cl)cccc1Cl)OCCOCCOCCO
13 | 3.6 | CC(C(=O)OCCOCCO)c1cccc(C(=O)c2ccccc2)c1 (stereo not drawn)
